Test results reported in patent US9056835B2, “LPA2 receptor-specific benzoic acid derivatives” (University of Tennessee Research Foundation, priority 2012, dated 2015).

How the values were obtained:
MM1 hepatoma cells = test: MM1 hepatoma cell invasion of endothelial monolayer; format: cell-based, rat; settings: LPA 1 μM, GRI977143 10 μM, 20 h
Protocol: Mouse embryonic fibroblast (MEF) cells were isolated from E13.5 LPA1&2 double knockout (DKO) embryos. MEFs were transduced with empty vector or LPA2-containing lentiviruses and selected with 1.5 μg/ml puromycin. Cells were maintained in Dulbecco's modified Eagle medium (DMEM) supplemented with 10% (V/V) fetal bovine serum (FBS), 2 mM L-glutamine, 100 U/mL penicillin, and 100 μg/mL streptomycin. Serum-free medium contained 0.1% (W/V) BSA in DMEM. The rat intestinal epithelial cell line 6 (IEC-6) was obtained from the American Type Culture Collection (Rockville, Md.) at passage 13; passages 16-21 were used in all experiments. IEC-6 cells were maintained in a humidified 37° C. incubator in an atmosphere of 90% air and 10% CO2. Growth medium consisted of DMEM supplemented with 5% heat inactivated FBS, 10 μg/mL insulin, and 50 μg/mL gentamycin. […]
HUVEC (1.3×10^5 cells at passages 5 to 7) were seeded into each well of a 12-well plate pre-coated with 0.2% gelatin (Sigma-Aldrich). […] Tumor cells that penetrated the monolayer were photographed using a NIKON TiU inverted microscope with phase-contrast and fluorescence illumination. […] A total of five non-overlapping fields was imaged per well, and the number of invaded MM1 cells (displaying a flattened morphology underneath the monolayer) was counted.

LPA2 = LPA2 (Homo sapiens, UniProt Q9HBW0); test: Fura-2AM Ca2+ mobilization in LPA2 DKO MEF cells; format: cell-based; parameters: expressed in transfected cells; host or cells: mouse embryonic fibroblasts from LPA1/2 double-knockout mice, lentiviral transduction; settings: LPA2 Ca2+ mobilization in DKO MEF cells, mean fluorescence ratio
Protocol: (§1) Fluorescence was read every 3.42 seconds for a total of 70 seconds at Ex/Emλ of 340/510 nm and 380/510 nm. Data (relative fluorescence) was then recorded as a mean fluorescence ratio value of the triplicates for each concentration. Graph Pad Prism version 5.0a was then used to fit a non-linear regression curve in a variable slope model (A) to determine the EC50, Emax, and curve fit (R^2)(B).
Mouse embryonic fibroblast (MEF) cells used in this study isolated from LPA1/2 double knock out (LPA2-DKO) mice {Lin, 2007 #132}. These MEF express LPA4/5/6 receptors endogenously at lower levels but completely lack LPA1/2/3 receptor subtypes. The human LPA2 receptor was reintroduced into these MEF cells by lentiviral transduction, which are designated LPA2 DKO MEF {Lin, 2007 #132}. Empty vector-transduced MEF cells, designates as EV DKO MEF, were used as a control. Cells were cultured in a DMEM supplemented with 10% v/v fetal bovine serum (FBS), 2 mM L-glutamine, 100 U/ml penicillin, and 100 μg/mL streptomycin. During serum starvation, the growth medium was replaced with DMEM containing 0.1% (w/v) BSA.
as §1

ERK1/2 = test: Immunoblot, ERK1/2 activation; format: cell-based, mouse; settings: 10 μM, 10 min
Protocol: To detect ligand-induced ERK1/2 activation, vector- and LPA2-transfected MEF cells were serum starved 3 h before exposure to 1 μM LPA, 1 μM OTP, 10 μM GRI977143, or vehicle for 10 min. For ERK1/2 activation and PARP-1 cleavage measurements, cells were harvested in 1× Laemmli sample buffer and separated using 12% Laemmli SDS-polyacrylamide gels. To assess Bax translocation, cell lysates were separated into cytosolic, mitochondrial, and nuclear fractions using the Cell Fractionation Kit-Standard (MitoSciences; Eugene, Oreg.). […] Samples were boiled for 5 min and loaded onto 12% SDS-polyacrylamide gels. Western blotting was carried out as previously described (Valentine et al., 2010). Primary antibodies against pERK1/2, PARP-1, Bax (Cell Signaling Technology; Beverly, Mass.), actin (Sigma-Aldrich), and anti-rabbit-horseradish peroxidase secondary antibodies (Promega) were used according to the instructions of the manufacturer.

LPA2, sequence (Q9HBW0 whole entry): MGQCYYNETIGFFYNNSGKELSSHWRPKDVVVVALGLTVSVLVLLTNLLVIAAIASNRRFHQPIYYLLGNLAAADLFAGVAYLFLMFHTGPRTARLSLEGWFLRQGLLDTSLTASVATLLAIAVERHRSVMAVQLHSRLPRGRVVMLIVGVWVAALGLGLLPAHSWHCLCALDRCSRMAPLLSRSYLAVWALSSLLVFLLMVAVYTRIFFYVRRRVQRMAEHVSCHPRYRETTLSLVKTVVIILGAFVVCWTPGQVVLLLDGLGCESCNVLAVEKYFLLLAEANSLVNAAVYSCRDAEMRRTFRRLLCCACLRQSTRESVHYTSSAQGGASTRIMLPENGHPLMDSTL

Emax (MFR) (LPA2) | SMILES | MM1 cell invasion of HUVEC monolayers (MM1 hepatoma cells) | increase in ERK1/2 activation (ERK1/2; LPA2-transduced MEF) [fold] | ERK1/2 basal activity (ERK1/2; vector-transduced MEF)
1.2 | CCCCCCCC/C=C\CCCCCCCC(=O)OC[C@@H](O)COP(=O)(O)O [LPA 18:1, Lysophosphatidic acid (18:1)] | significant increase | – | –
– | O=C(O)c1ccccc1SCCCN1C(=O)c2cccc3cccc(c23)C1=O [GRI977143] | significant increase | 9.6 | did not alter the basal activity
